Experimental data taken from ChEMBL document CHEMBL1201862, “PubChem BioAssay data set” (2004).
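The compound was tested at five concentrations on cells cultured in 96-well plates, with a 48-hour exposure period. GI50 = concentration required for 50% inhibition of growth.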 Activity calls are given as the source filed them. No stated cut-off is given here; in the data, active = GI50 up to about 1.1 µM and inactive = higher.

Legend:
Assay in all cases: NCI-60 cell line screen, 48 h
SNB-19 = system: SNB-19
KM12 = system: KM12
IGROV-1 = system: IGROV-1
SN12C = system: SN12C
UACC-257 = system: UACC-257
RPMI-8226 = system: RPMI-8226
HOP-92 = system: HOP-92
SF-539 = system: SF-539
UO-31 = system: UO-31
RXF 393 = system: RXF 393
CAKI-1 = system: CAKI-1
SNB-75 = system: SNB-75
OVCAR-4 = system: OVCAR-4
TK-10 = system: TK-10
NCI-H522 = system: NCI-H522
LOX IMVI = system: LOX IMVI
CCRF-CEM = system: CCRF-CEM
NCI-H23 = system: NCI-H23
NCI/ADR-RES = system: NCI/ADR-RES
MOLT-4 = system: MOLT-4

Structure (SMILES) | GI50 (SNB-19) | GI50 (KM12) | GI50 (IGROV-1) | GI50 (SN12C) | GI50 (UACC-257) | GI50 (RPMI-8226) | GI50 (HOP-92) | GI50 (SF-539) | GI50 (UO-31) | GI50 (RXF 393) | GI50 (CAKI-1) | GI50 (SNB-75) | GI50 (OVCAR-4) | GI50 (TK-10) | GI50 (NCI-H522) | GI50 (LOX IMVI) | GI50 (CCRF-CEM) | GI50 (NCI-H23) | GI50 (NCI/ADR-RES) | GI50 (MOLT-4)
CCOC(=O)C(=O)NC12CC3CC(CC(C3)C1)C2 | > 100 µM (inactive) | > 100 µM (inactive) | > 100 µM (inactive) | > 100 µM (inactive) | > 100 µM (inactive) | > 100 µM (inactive) | > 100 µM (inactive) | > 100 µM (inactive) | > 100 µM (inactive) | > 100 µM (inactive) | > 100 µM (inactive) | > 100 µM (inactive) | > 100 µM (inactive) | > 100 µM (inactive) | > 100 µM (inactive) | 0.208 µM (active) | > 100 µM (inactive) | > 100 µM (inactive) | – | –
Cc1ccc2c3c1[C@@H]1O[C@@H]1c1cccc(c1-3)[C@@H]1O[C@H]21 | 19.8 µM (inactive) | 12.4 µM (inactive) | – | 11.1 µM (inactive) | 15.9 µM (inactive) | – | 18.1 µM (inactive) | – | 12 µM (inactive) | – | 16.4 µM (inactive) | 2.38 µM (inactive) | 17.5 µM (inactive) | 18.2 µM (inactive) | 12.2 µM (inactive) | 2.4 µM (inactive) | – | 15.1 µM (inactive) | 18.2 µM (inactive) | 3.96 µM (inactive)
O=C(OCc1ccccc1)OOC(=O)OCc1ccccc1 | > 100 µM (inactive) | > 100 µM (inactive) | > 100 µM (inactive) | > 100 µM (inactive) | > 100 µM (inactive) | > 100 µM (inactive) | > 100 µM (inactive) | > 100 µM (inactive) | > 100 µM (inactive) | > 100 µM (inactive) | > 100 µM (inactive) | 99.1 µM (inactive) | > 100 µM (inactive) | – | > 100 µM (inactive) | – | > 100 µM (inactive) | > 100 µM (inactive) | – | > 100 µM (inactive)
COC(=O)C(Cc1ccc(N(C)C)cc1)(NC(=O)c1ccccc1)P(=O)(OC)OC (stereo not given) | > 100 µM (inactive) | > 100 µM (inactive) | > 100 µM (inactive) | > 100 µM (inactive) | > 100 µM (inactive) | > 100 µM (inactive) | > 100 µM (inactive) | > 100 µM (inactive) | > 100 µM (inactive) | > 100 µM (inactive) | > 100 µM (inactive) | > 100 µM (inactive) | > 100 µM (inactive) | > 100 µM (inactive) | > 100 µM (inactive) | > 100 µM (inactive) | > 100 µM (inactive) | > 100 µM (inactive) | – | > 100 µM (inactive)
N/N=C(\C(=O)Nc1c(Cl)cc([N+](=O)[O-])cc1Cl)C(c1cnc2ccc([N+](=O)[O-])cc2n1)[N+](=O)[O-] (stereo not given) | > 100 µM (inactive) | 50.1 µM (inactive) | > 100 µM (inactive) | 95.7 µM (inactive) | > 100 µM (inactive) | 42.8 µM (inactive) | > 100 µM (inactive) | > 100 µM (inactive) | 87.7 µM (inactive) | > 100 µM (inactive) | 66.1 µM (inactive) | 56.9 µM (inactive) | > 100 µM (inactive) | > 100 µM (inactive) | 9.98 µM (inactive) | > 100 µM (inactive) | 77.1 µM (inactive) | > 100 µM (inactive) | – | 47.6 µM (inactive)
Cc1ccc(C(=O)Cc2nc3c([nH]c2=O)c(C)nn3-c2ccccc2)c(C)c1 | > 10 µM (inactive) | > 10 µM (inactive) | > 10 µM (inactive) | > 10 µM (inactive) | > 10 µM (inactive) | > 10 µM (inactive) | 6.04 µM (inactive) | > 10 µM (inactive) | – | – | > 10 µM (inactive) | 1.01 µM (active) | 2.29 µM (inactive) | > 10 µM (inactive) | > 10 µM (inactive) | > 10 µM (inactive) | 5.69 µM (inactive) | > 10 µM (inactive) | 6.53 µM (inactive) | > 10 µM (inactive)
COc1ccc(/C(Cl)=C(\C=O)c2ccc(F)cc2)cc1 | 17.9 µM (inactive) | – | 18.9 µM (inactive) | 9.98 µM (inactive) | – | 4.49 µM (inactive) | 4.29 µM (inactive) | 15.5 µM (inactive) | 8.15 µM (inactive) | – | 8.18 µM (inactive) | 2.27 µM (inactive) | – | 33.1 µM (inactive) | 4.06 µM (inactive) | 7.03 µM (inactive) | 3.14 µM (inactive) | 14.8 µM (inactive) | – | 3.56 µM (inactive)
c1ccc2c(c1)SCCc1cn[nH]c1-2 | > 100 µM (inactive) | > 100 µM (inactive) | > 100 µM (inactive) | > 100 µM (inactive) | > 100 µM (inactive) | – | > 73.5 µM (inactive) | > 100 µM (inactive) | > 100 µM (inactive) | > 100 µM (inactive) | > 100 µM (inactive) | > 92.5 µM (inactive) | > 100 µM (inactive) | – | > 100 µM (inactive) | > 100 µM (inactive) | > 100 µM (inactive) | > 100 µM (inactive) | > 100 µM (inactive) | > 100 µM (inactive)
COc1ccc2c(c1)c1c(n2CCN(C)C)-c2ccccc2CC1 | 15.7 µM (inactive) | 14.4 µM (inactive) | 11.9 µM (inactive) | 14.1 µM (inactive) | 16.3 µM (inactive) | 13.7 µM (inactive) | 16.5 µM (inactive) | 14 µM (inactive) | 13.5 µM (inactive) | – | 14.3 µM (inactive) | 13.7 µM (inactive) | 16.9 µM (inactive) | 15.9 µM (inactive) | 18.5 µM (inactive) | 16.6 µM (inactive) | 11.3 µM (inactive) | 18 µM (inactive) | 16.8 µM (inactive) | 13.2 µM (inactive)
C[Si](C)(C)/C(I)=C/CO | 29.6 µM (inactive) | 23 µM (inactive) | 25.1 µM (inactive) | 22 µM (inactive) | 15.5 µM (inactive) | 17.4 µM (inactive) | 24 µM (inactive) | 20 µM (inactive) | 34.4 µM (inactive) | – | – | 53.6 µM (inactive) | 38.3 µM (inactive) | 33.3 µM (inactive) | 16.1 µM (inactive) | 19.3 µM (inactive) | 22 µM (inactive) | 18 µM (inactive) | – | 17 µM (inactive)
N=C(N)SCCC(=O)CCSC(=N)N | > 100 µM (inactive) | 70.3 µM (inactive) | – | > 100 µM (inactive) | 36 µM (inactive) | – | > 100 µM (inactive) | – | > 100 µM (inactive) | > 100 µM (inactive) | – | > 100 µM (inactive) | > 100 µM (inactive) | > 100 µM (inactive) | > 100 µM (inactive) | > 100 µM (inactive) | > 100 µM (inactive) | > 100 µM (inactive) | 91.2 µM (inactive) | 99.5 µM (inactive)
C[n+]1[se]c2ccccc2c1Cl | > 67.8 µM (inactive) | > 40.2 µM (inactive) | 31 µM (inactive) | 15.5 µM (inactive) | 17.9 µM (inactive) | 33.1 µM (inactive) | 7.31 µM (inactive) | 19.3 µM (inactive) | 24.8 µM (inactive) | 19.5 µM (inactive) | > 41.8 µM (inactive) | 17.6 µM (inactive) | 31 µM (inactive) | > 43.4 µM (inactive) | 20.3 µM (inactive) | 19.9 µM (inactive) | 8.67 µM (inactive) | 20.1 µM (inactive) | – | 13.5 µM (inactive)
C=CC1(c2ccccc2Cl)N/C(=C/OCC)CO1 (stereo not given) | > 100 µM (inactive) | > 100 µM (inactive) | > 100 µM (inactive) | > 100 µM (inactive) | > 100 µM (inactive) | 24.7 µM (inactive) | > 100 µM (inactive) | > 100 µM (inactive) | > 100 µM (inactive) | 10.3 µM (inactive) | > 100 µM (inactive) | 36.6 µM (inactive) | > 100 µM (inactive) | > 100 µM (inactive) | > 100 µM (inactive) | 23.5 µM (inactive) | > 100 µM (inactive) | > 100 µM (inactive) | – | > 100 µM (inactive)
O=S1(=O)CC#CC[C@@H](CO)[C@@H](CO)CC#CC1 | – | > 100 µM (inactive) | 43.1 µM (inactive) | > 100 µM (inactive) | 91.6 µM (inactive) | – | 31.5 µM (inactive) | > 100 µM (inactive) | > 100 µM (inactive) | > 100 µM (inactive) | – | 82 µM (inactive) | > 100 µM (inactive) | > 100 µM (inactive) | 17.9 µM (inactive) | 69.3 µM (inactive) | 22.5 µM (inactive) | > 100 µM (inactive) | – | 42.5 µM (inactive)
CC=C/C=C/[C@@H]1O[C@](O)([C@H](CC)C(=O)NC/C=C/C=C(\C)[C@@H](OC)[C@@H](C)[C@@H]2O[C@H](/C=C/C=C/C=C(\C)C(=O)c3c(O)cc[nH]c3=O)[C@H](O)[C@@H]2O)[C@H](O)[C@H](O)C1(C)C | > 100 µM (inactive) | 72.6 µM (inactive) | > 100 µM (inactive) | – | > 100 µM (inactive) | 88.7 µM (inactive) | > 100 µM (inactive) | > 100 µM (inactive) | > 100 µM (inactive) | – | – | > 100 µM (inactive) | > 100 µM (inactive) | > 100 µM (inactive) | > 100 µM (inactive) | – | – | > 100 µM (inactive) | > 100 µM (inactive) | 73.6 µM (inactive)
